Laboratory results taken from US8901118B2, “Compounds and methods for kinase modulation, and indications therefor” (Plexxikon Inc., priority 2010, dated 2014).

Columns and labels:
CYP2C9 = CYP2C9 (Homo sapiens, UniProt P11712); assay: CYP2C9 inhibition (fluorescent substrate MFC); type: in vitro ADME; conditions: read-out: Cyp IC50 2C9
Outline: (§1)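 10-pt 1:1 dilution series (from 100 mM DMSO stock) in NADPH regen cofactor mix, 5% MeCN; 10 min preincubation at 37 °C. Enzyme reaction 37 °C: 1A2 15 min, 2C9 45 min, 2C19/2D6 30 min. Fluorescence readout; IC50 fit.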

CYP2D6 = CYP2D6 (Homo sapiens, UniProt P10635); assay: CYP2D6 inhibition (fluorescent substrate AMMC); type: in vitro ADME; conditions: read-out: Cyp IC50 2D6
Outline: as §1

CYP3A4(BFC) = CYP3A4(BFC) (Homo sapiens, UniProt P08684); assay: CYP3A4(BFC) inhibition; type: in vitro ADME; conditions: CYP3A4, substrate BFC; read-out: Cyp IC50 3A4(BFC)
Outline: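 This fluorescence assay tracks how test compounds reduce CYP3A4 turnover of BFC, with enzyme and substrate from BD Biosciences. A 10-point 1:1 dilution series in cofactor mix (1.3% NADPH Regeneration Solution A, 1.04% Solution B, 5% acetonitrile, 0.05% DMSO) was dispensed at 10 μL into 384 well plates, preincubated 10 minutes at 37° C, then incubated 30 min and read on a Tecan Safire 2.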

TrkA kinase = TrkA kinase (Homo sapiens, UniProt P04629); assay: TrkA kinase biochemical activity assay (AlphaScreen); conditions: 100 μM ATP; read-out: Biochemical Inhibition IC50 TrkA
Outline: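 IC50 values come from AlphaScreen PY20/streptavidin bead signal versus compound concentration. Kinase reaction: 1 ng/well TrkA, 100 μM ATP, 30 nM biotin-(E4Y)10 substrate, Mn2+-containing Hepes buffer pH 7.5, 5% DMSO, 40 min, room temperature; TrkC assayed by the same approach.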

[1] = Relative solubility by turbidity in aqueous buffers (pH 1.5, 4.5, 6.8, 7.4); type: physicochemical; conditions: for turbidity threshold (L, M, H) 1.4: pH 1.5 (SGF); for turbidity threshold (L, M, H) 4.5: pH 4.5 (SIF); for turbidity threshold (L, M, H) 6.8: pH 6.8 (SIF); for turbidity threshold (L, M, H) 7.4: pH 7.4 (HEPES)
Outline: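 Reported value: concentration at which optical density at 490, 535 and 650 nm passes 0.01, taken as the mean of the three wavelengths. Buffers were 0.5M NaCl pH 1.5, 0.05M NaH2PO4 pH 4.5 or 6.8, and 10 mM HEPES/150 mM NaCl pH 7.4, each receiving serial 1:1 DMSO dilutions of a 25 mM stock.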

CYP3A4(BQ) = CYP3A4(BQ) (Homo sapiens, UniProt P08684); assay: CYP3A4(BQ) inhibition; type: in vitro ADME; conditions: CYP3A4, substrate BQ; read-out: Cyp IC50 3A4(BQ)
Outline: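 After 30 min incubation at 37° C, plates were read on a Tecan Safire 2 at 409 ex/460 em, and IC50 values came from signal plotted against compound concentration. Enzyme and substrate were sourced from BD Biosciences. The cofactor mix held 1.3% NADPH Regeneration system Solution A, 1.04% Solution B, 5% acetonitrile and 0.05% DMSO.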

Chain of CYP2C9 (P11712 whole entry): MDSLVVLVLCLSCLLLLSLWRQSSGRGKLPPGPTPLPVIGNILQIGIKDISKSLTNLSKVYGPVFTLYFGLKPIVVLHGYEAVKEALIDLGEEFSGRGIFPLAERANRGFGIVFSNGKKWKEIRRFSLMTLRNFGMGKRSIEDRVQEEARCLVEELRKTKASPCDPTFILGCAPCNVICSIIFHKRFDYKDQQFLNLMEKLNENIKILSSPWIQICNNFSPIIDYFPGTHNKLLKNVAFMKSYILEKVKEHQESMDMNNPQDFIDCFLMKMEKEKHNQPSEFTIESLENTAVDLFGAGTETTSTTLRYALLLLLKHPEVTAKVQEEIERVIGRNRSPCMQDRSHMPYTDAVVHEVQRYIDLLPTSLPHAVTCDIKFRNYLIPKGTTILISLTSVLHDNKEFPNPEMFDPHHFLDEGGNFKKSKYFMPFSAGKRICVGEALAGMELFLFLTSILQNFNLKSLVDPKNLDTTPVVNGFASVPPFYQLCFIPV
Chain of CYP2D6 (P10635 whole entry): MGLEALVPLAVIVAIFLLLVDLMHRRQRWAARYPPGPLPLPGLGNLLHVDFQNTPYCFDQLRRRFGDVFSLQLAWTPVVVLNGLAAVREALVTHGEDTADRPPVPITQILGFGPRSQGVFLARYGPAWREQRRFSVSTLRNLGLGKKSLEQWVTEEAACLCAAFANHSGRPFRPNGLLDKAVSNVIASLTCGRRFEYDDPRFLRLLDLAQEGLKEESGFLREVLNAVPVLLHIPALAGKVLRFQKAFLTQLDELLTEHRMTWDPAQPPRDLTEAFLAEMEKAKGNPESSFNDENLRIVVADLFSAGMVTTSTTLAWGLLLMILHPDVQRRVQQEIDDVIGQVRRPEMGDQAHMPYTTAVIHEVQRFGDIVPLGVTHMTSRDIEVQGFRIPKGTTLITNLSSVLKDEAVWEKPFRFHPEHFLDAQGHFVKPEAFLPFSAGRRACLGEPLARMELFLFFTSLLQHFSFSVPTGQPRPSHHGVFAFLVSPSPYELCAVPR
Chain of TrkA kinase (P04629 33-796): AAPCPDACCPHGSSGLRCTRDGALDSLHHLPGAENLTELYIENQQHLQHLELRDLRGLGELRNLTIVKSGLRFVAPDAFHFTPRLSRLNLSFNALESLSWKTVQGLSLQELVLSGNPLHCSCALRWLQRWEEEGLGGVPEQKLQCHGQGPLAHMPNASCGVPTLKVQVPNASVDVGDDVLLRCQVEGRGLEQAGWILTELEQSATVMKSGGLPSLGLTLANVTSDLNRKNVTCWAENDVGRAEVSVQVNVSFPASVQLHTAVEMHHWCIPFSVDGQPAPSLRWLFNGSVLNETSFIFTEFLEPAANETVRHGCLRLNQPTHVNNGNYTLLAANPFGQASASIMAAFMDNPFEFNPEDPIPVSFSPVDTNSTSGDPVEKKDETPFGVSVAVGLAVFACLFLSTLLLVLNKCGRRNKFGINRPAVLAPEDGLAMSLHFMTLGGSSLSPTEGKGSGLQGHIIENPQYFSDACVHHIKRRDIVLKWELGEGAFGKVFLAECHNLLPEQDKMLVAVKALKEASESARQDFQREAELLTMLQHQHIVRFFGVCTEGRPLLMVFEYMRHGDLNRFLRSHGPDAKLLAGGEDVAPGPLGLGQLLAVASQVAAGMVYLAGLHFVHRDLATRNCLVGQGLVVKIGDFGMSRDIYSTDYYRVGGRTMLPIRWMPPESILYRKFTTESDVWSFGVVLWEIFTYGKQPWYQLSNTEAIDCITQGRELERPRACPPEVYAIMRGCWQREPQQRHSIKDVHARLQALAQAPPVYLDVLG
Chain of CYP3A4(BQ) (P08684 whole entry): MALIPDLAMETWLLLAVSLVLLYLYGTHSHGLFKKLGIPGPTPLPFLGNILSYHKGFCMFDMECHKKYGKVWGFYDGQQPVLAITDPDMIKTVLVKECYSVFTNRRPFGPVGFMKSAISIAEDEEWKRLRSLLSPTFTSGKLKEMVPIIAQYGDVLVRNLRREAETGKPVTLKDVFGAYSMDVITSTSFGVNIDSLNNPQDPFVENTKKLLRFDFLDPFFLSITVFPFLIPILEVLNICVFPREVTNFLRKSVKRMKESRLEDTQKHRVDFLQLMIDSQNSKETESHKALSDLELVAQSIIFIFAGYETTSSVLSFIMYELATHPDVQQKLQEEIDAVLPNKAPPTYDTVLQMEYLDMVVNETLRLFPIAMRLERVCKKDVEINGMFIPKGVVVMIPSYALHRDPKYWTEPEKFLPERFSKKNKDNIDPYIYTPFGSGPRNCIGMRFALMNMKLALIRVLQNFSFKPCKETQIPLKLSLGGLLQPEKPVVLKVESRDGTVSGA
Chain of CYP3A4(BFC) (P08684 whole entry): as above

For `Cc1cnc2[nH]cc(Cc3ccc(NC4CCCCC4)nc3F)c2c1` [Compound P-3008, cyclohexyl-[6-fluoro-5-(5-methyl-1H-pyrrolo[2,3-b]pyridin-3-ylmethyl)-pyridin-2-yl]-amine], the IC50 (CYP2C9) was 5 to 10 µM, the IC50 (CYP2D6) was > 10 µM and the IC50 (CYP3A4(BFC)) was 5 to 10 µM.

For `Nc1ncnc2[nH]cc(C(=O)c3ccc(Nc4ccc(C5CC5)nc4)nc3F)c12` [Compound P-4048, (4-amino-7H-pyrrolo[2,3-d]pyrimidin-5-yl)-[6-[(6-cyclopropyl-3-pyridyl)amino]-2-fluoro-3-pyridyl]methanone], the IC50 (TrkA kinase) was < 10 nM, the “turbidity threshold (L, M, H) 1.4” value [1] was “H (high solubility if the threshold concentration is >250 μm)” and the “turbidity threshold (L, M, H) 4.5” value [1] was “M (moderate solubility if the threshold concentration is 31.3 μM to 250 μM)”. For the same compound, the “turbidity threshold (L, M, H) 6.8” value [1] was “M (moderate solubility if the threshold concentration is 31.3 μM to 250 μM)”, the “turbidity threshold (L, M, H) 7.4” value [1] was “M (moderate solubility if the threshold concentration is 31.3 μM to 250 μM)” and the IC50 (CYP2C9) was > 10 µM. The IC50 (CYP2D6) was > 10 µM, the IC50 (CYP3A4(BFC)) was > 10 µM and the IC50 (CYP3A4(BQ)) was > 10 µM.

In the case of `CNc1ncnc2[nH]cc(C(=O)c3cnc(NC4CCC(F)(F)CC4)c(F)c3)c12` [Compound P-4054, [6-[(4,4-difluorocyclohexyl)amino]-5-fluoro-3-pyridyl]-[4-(methylamino)-7H-pyrrolo[2,3-d]pyrimidin-5-yl]methanone], the IC50 (TrkA kinase) is reported as < 100 nM, the “turbidity threshold (L, M, H) 1.4” value [1] is reported as “H (high solubility if the threshold concentration is >250 μm)” and the “turbidity threshold (L, M, H) 4.5” value [1] is reported as “M (moderate solubility if the threshold concentration is 31.3 μM to 250 μM)”. For the same compound, the “turbidity threshold (L, M, H) 6.8” value [1] was “M (moderate solubility if the threshold concentration is 31.3 μM to 250 μM)”, the “turbidity threshold (L, M, H) 7.4” value [1] was “M (moderate solubility if the threshold concentration is 31.3 μM to 250 μM)” and the IC50 (CYP2C9) was > 10 µM. For the same compound, the IC50 (CYP2D6) was > 10 µM, the IC50 (CYP3A4(BFC)) was > 10 µM and the IC50 (CYP3A4(BQ)) was > 10 µM.

With `O=C(c1cnc(NC2CCC(F)(F)CC2)c(F)c1)c1c[nH]c2ncnc(NCC(F)(F)F)c12` [Compound P-4052, [6-[(4,4-difluorocyclohexyl)amino]-5-fluoro-3-pyridyl]-[4-(2,2,2-trifluoroethylamino)-7H-pyrrolo[2,3-d]pyrimidin-5-yl]methanone] the IC50 (TrkA kinase) was < 1000 nM, the “turbidity threshold (L, M, H) 1.4” value [1] was “L (low solubility if the threshold concentration is <31.3 μM)” and the “turbidity threshold (L, M, H) 4.5” value [1] was “L (low solubility if the threshold concentration is <31.3 μM)”. For the same compound, the “turbidity threshold (L, M, H) 6.8” value [1] was “L (low solubility if the threshold concentration is <31.3 μM)”, the “turbidity threshold (L, M, H) 7.4” value [1] was “L (low solubility if the threshold concentration is <31.3 μM)” and the IC50 (CYP2C9) was > 10 µM. For the same compound, the IC50 (CYP2D6) was > 10 µM, the IC50 (CYP3A4(BFC)) was > 10 µM and the IC50 (CYP3A4(BQ)) was > 10 µM.

In the case of `CCNc1ncnc2[nH]cc(C(=O)c3ccc(NC4CCC(F)(F)CC4)nc3Cl)c12` [Compound P-4050, [2-chloro-6-[(4,4-difluorocyclohexyl)amino]-3-pyridyl]-[4-(ethylamino)-7H-pyrrolo[2,3-d]pyrimidin-5-yl]methanone], the IC50 (TrkA kinase) is reported as < 1000 nM, the “turbidity threshold (L, M, H) 1.4” value [1] is reported as “H (high solubility if the threshold concentration is >250 μm)” and the “turbidity threshold (L, M, H) 4.5” value [1] is reported as “L (low solubility if the threshold concentration is <31.3 μM)”. The “turbidity threshold (L, M, H) 6.8” value [1] was “L (low solubility if the threshold concentration is <31.3 μM)”, the “turbidity threshold (L, M, H) 7.4” value [1] was “L (low solubility if the threshold concentration is <31.3 μM)” and the IC50 (CYP2C9) was > 10 µM. For the same compound, the IC50 (CYP2D6) was > 10 µM, the IC50 (CYP3A4(BFC)) was > 10 µM and the IC50 (CYP3A4(BQ)) was > 10 µM.

For `O=C(c1cnc(NC2CCC(F)(F)CC2)c(F)c1)c1c[nH]c2ncnc(NC3CC3)c12` [Compound P-4053, [4-(cyclopropylamino)-7H-pyrrolo[2,3-d]pyrimidin-5-yl]-[6-[(4,4-difluorocyclohexyl)amino]-5-fluoro-3-pyridyl]methanone], the IC50 (TrkA kinase) was < 10 nM, the “turbidity threshold (L, M, H) 1.4” value [1] was “H (high solubility if the threshold concentration is >250 μm)” and the “turbidity threshold (L, M, H) 4.5” value [1] was “M (moderate solubility if the threshold concentration is 31.3 μM to 250 μM)”. The “turbidity threshold (L, M, H) 6.8” value [1] was “M (moderate solubility if the threshold concentration is 31.3 μM to 250 μM)”, the “turbidity threshold (L, M, H) 7.4” value [1] was “M (moderate solubility if the threshold concentration is 31.3 μM to 250 μM)” and the IC50 (CYP2C9) was > 10 µM. For the same compound, the IC50 (CYP2D6) was > 10 µM, the IC50 (CYP3A4(BFC)) was > 10 µM and the IC50 (CYP3A4(BQ)) was > 10 µM.

With `Nc1ncnc2[nH]cc(C(=O)c3ccc(NC4CCC(F)(F)CC4)nc3Cl)c12` [Compound P-4046, (4-amino-7H-pyrrolo[2,3-d]pyrimidin-5-yl)-[2-chloro-6-[(4,4-difluorocyclohexyl)amino]-3-pyridyl]methanone] the IC50 (TrkA kinase) was < 1000 nM.

In the case of `CC(C)(O)CNc1ncnc2[nH]cc(C(=O)c3ccc(Nc4ccc(C5CC5)nc4)nc3F)c12` [Compound P-4049, [6-[(6-cyclopropyl-3-pyridyl)amino]-2-fluoro-3-pyridyl]-[4-[(2-hydroxy-2-methyl-propyl)amino]-7H-pyrrolo[2,3-d]pyrimidin-5-yl]methanone], the IC50 (TrkA kinase) is reported as < 10 nM, the “turbidity threshold (L, M, H) 1.4” value [1] is reported as “H (high solubility if the threshold concentration is >250 μm)” and the “turbidity threshold (L, M, H) 4.5” value [1] is reported as “L (low solubility if the threshold concentration is <31.3 μM)”. The “turbidity threshold (L, M, H) 6.8” value [1] was “L (low solubility if the threshold concentration is <31.3 μM)”, the “turbidity threshold (L, M, H) 7.4” value [1] was “L (low solubility if the threshold concentration is <31.3 μM)” and the IC50 (CYP2C9) was 5 to 10 µM. For the same compound, the IC50 (CYP2D6) was > 10 µM, the IC50 (CYP3A4(BFC)) was > 10 µM and the IC50 (CYP3A4(BQ)) was > 10 µM.

In the case of `CC(C)=CNc1ncnc2[nH]cc(C(=O)c3ccc(NC4CCC(F)(F)CC4)nc3Cl)c12` [Compound P-4047, [2-chloro-6-[(4,4-difluorocyclohexyl)amino]-3-pyridyl]-[4-(2-methylprop-1-enylamino)-7H-pyrrolo[2,3-d]pyrimidin-5-yl]methanone], the IC50 (TrkA kinase) is reported as > 1000 nM, the IC50 (CYP2C9) is reported as > 10 µM and the IC50 (CYP2D6) is reported as > 10 µM. For the same compound, the IC50 (CYP3A4(BFC)) was > 10 µM and the IC50 (CYP3A4(BQ)) was > 10 µM.

In the case of `O=C(c1ccc(Nc2ccc(C3CC3)nc2)nc1F)c1c[nH]c2ncnc(C3CC3)c12` [Compound P-4040, [6-(6-Cyclopropyl-pyridin-3-ylamino)-2-fluoro-pyridin-3-yl]-(4-cyclopropyl-7H-pyrrolo[2,3-d]pyrimidin-5-yl)-methanone], the IC50 (TrkA kinase) is reported as < 10 nM.

With `Fc1nc(Nc2ccc(C3CC3)nc2)ccc1Cc1c[nH]c2ncnc(C3CC3)c12` [Compound P-4041, (6-Cyclopropyl-pyridin-3-yl)-[5-(4-cyclopropyl-7H-pyrrolo[2,3-d]pyrimidin-5-ylmethyl)-6-fluoro-pyridin-2-yl]-amine] the IC50 (TrkA kinase) was < 10 nM, the IC50 (CYP2C9) was 5 to 10 µM and the IC50 (CYP2D6) was > 10 µM. For the same compound, the IC50 (CYP3A4(BFC)) was > 10 µM and the IC50 (CYP3A4(BQ)) was 5 to 10 µM.

In the case of `CCNc1ncnc2[nH]cc(C(=O)c3cnc(NC4CCC(F)(F)CC4)c(F)c3)c12` [Compound P-4051, [6-[(4,4-difluorocyclohexyl)amino]-5-fluoro-3-pyridyl]-[4-(ethylamino)-7H-pyrrolo[2,3-d]pyrimidin-5-yl]methanone], the IC50 (TrkA kinase) is reported as < 10 nM, the “turbidity threshold (L, M, H) 1.4” value [1] is reported as “H (high solubility if the threshold concentration is >250 μm)” and the “turbidity threshold (L, M, H) 4.5” value [1] is reported as “M (moderate solubility if the threshold concentration is 31.3 μM to 250 μM)”. For the same compound, the “turbidity threshold (L, M, H) 6.8” value [1] was “M (moderate solubility if the threshold concentration is 31.3 μM to 250 μM)”, the “turbidity threshold (L, M, H) 7.4” value [1] was “L (low solubility if the threshold concentration is <31.3 μM)” and the IC50 (CYP2C9) was > 10 µM. For the same compound, the IC50 (CYP2D6) was > 10 µM, the IC50 (CYP3A4(BFC)) was > 10 µM and the IC50 (CYP3A4(BQ)) was > 10 µM.
